Data from patent US5773423A (priority 1994, dated 1998).
Residue numbers refer to the chain shown, from its start. Read-outs that look alike come from different tables or passages of the source.

Tests used:
[1] = molecular target: T1, A1 receptors from rat brain membranes (Rattus norvegicus, UniProt P25099)
T1 construct: Rat cerebral cortical and striatal membranes were prepared; from tissue; host or cells: rat brain (cerebral cortical) membranes
T1 sequence (P25099 1-326): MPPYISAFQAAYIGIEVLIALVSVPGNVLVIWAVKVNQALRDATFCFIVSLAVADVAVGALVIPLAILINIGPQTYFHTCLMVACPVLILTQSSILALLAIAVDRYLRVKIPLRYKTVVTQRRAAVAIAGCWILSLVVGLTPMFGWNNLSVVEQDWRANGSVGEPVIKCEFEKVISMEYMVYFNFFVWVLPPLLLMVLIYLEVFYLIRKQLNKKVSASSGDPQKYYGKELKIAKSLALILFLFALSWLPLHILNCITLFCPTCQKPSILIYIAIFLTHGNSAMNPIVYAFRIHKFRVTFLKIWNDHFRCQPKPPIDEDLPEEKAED

[2] = molecular target: T2, A2 receptors from rat striatal membranes (Rattus norvegicus, UniProt P30543)
T2 construct: Rat cerebral cortical and striatal membranes were prepared; from tissue; host or cells: rat striatal membranes
T2 sequence (P30543 whole entry): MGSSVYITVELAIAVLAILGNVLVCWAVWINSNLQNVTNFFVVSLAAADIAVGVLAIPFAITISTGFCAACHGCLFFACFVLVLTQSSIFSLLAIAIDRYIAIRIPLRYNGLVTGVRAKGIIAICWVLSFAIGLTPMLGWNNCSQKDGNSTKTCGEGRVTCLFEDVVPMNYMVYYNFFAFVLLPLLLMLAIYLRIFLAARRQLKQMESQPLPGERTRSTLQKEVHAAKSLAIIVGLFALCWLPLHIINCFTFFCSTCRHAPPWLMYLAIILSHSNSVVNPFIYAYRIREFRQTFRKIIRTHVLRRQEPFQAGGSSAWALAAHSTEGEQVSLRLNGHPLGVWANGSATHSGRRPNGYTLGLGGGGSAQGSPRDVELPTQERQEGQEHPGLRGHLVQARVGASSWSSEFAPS

[3] = molecular target: T2, A2 receptors from rat striatal membranes; experiment: Radioligand binding at A2 (A2a) receptors, displacement of [3H]CGS 21680 (or [3H]NECA with 50 nM CPA) from rat striatal membranes; details: for inhibition at 100 µM: read-out: A2 percent displacement
[4] = molecular target: T1, A1 receptors from rat brain membranes; experiment: biochemical; format: binding; details: for Ki: rat brain membranes
[5] = molecular target: T3, A1 and A3 adenosine receptors in mouse brain membranes (Mus musculus, UniProt Q60612)
T3 sequence (Q60612 1-326): T1 sequence (P25099 1-326) with V151E, D155A, R157I, D316E, L319I, E325D

[6] = system: locomotor activity in mice; experiment: Locomotor activity in mice (open field, Digiscan activity monitor); format: in vivo, mouse (NIH Swiss)
[7] = system: pentamethylenetetrazole-induced convulsions in mice; format: in vivo; details: PMT 75 mg/kg alone
[8] = system: cardiovascular parameters in rats; format: in vivo, rat
Experimental: Rats (each weighing 300-340 g) were lightly anesthetized using 1.5-2% halothane. They were monitored for heart rate with a tail sensor and blood pressure using the tail cuff method. Peripheral blood flow (scalp) was monitored using a Perimed laser Doppler blood flow apparatus, with a narrow diameter probe placed in contact with the shaved skin above the center of the cranium. A small amount of clear gel was applied to maintain uniform transmission of light. Body temperature was measured using a rectal probe. Respiratory rate was also recorded. Measurements were made at regular intervals: every 2 min for the first ten min period, and every five min thereafter, until 30 min, at which time a 30 min interval was used, until 90 min. […] Drugs were dissolved in a vehicle consisting of an 80:20 mixture of Alkamuls EL-620 and saline, pH 7.4. […] When administered alone, the agonist was given at the beginning of the monitoring period. When coadministered with an antagonist, the antagonist was given at the beginning of the monitoring period, and the agonist was given after 10 min.

[9] = system: NMDA-evoked seizures in mice; format: in vivo
[10] = values without SEM, taken from the literature; read-out: A1 affinity Ki; cited from earlier work
[11] = values without SEM, taken from the literature; read-out: A2 affinity Ki; cited from earlier work
[12] = read-out: A1 affinity Ki; values without SEM, taken from the literature; cited from earlier work
[13] = rat striatal membranes, displacement of [3H]CGS 21680 (or [3H]NECA + 50 nM CPA), read-out: A2 affinity Ki
[14] = displacement of [3H]PIA (or [3H]CHA), read-out: A1 affinity Ki
[15] = 4 mg/kg alone, 10-30 min post-injection
[16] = 0.1 mg/kg i.p., from initial value

Cn1c(=O)[nH]c2nc[nH]c2c1=O [Compound 99, 1-methylX]
Ki [1, 10]: 11.4 µM
Ki [2, 11]: 36.2 µM

O=c1[nH]c(=O)c2[nH]cnc2[nH]1 [Compound 98, xanthine, reference compound]
Ki [1, 10]: 298 µM
inhibition at 100 µM [3]: 16.2 ± 2.6%

Nc1ncnc2c1ccn2[C@@H]1O[C@H](CO)[C@@H](O)[C@H]1O [Compound 33, 7-deazaadenosine, reference compound]
Ki [1, 12]: > 0.1 µM
A2 percent displacement ([3]; striatal membranes, 100 µM): 48.3 ± 0.4%

OC[C@H]1O[C@@H](n2cnc3c(NC4CCCC4)cc(Cl)nc32)[C@H](O)[C@@H]1O [Compound 15, 1-deaza-2-chloro-N^6-cyclopentyladenosine]
Ki [2, 11]: 13.2 µM

CCNC(=O)[C@H]1O[C@@H](n2cnc3c(NC4CCCCC4)ncnc32)[C@H](O)[C@@H]1O [Compound 27, N^6 -cyclohexylNECA]
Ki ([1]; read-out: A1 affinity Ki; cited from earlier work): 0.00043 µM
Ki [2, 11]: 0.17 µM

NC(=O)[C@H]1O[C@@H](n2cnc3c(N)ncnc32)[C@H](O)[C@@H]1O [Compound 20, 5'-carboxamidoadenosine]
Ki [1, 10]: 0.0726 µM
Ki [2, 11]: 0.12 µM

CCNC(=O)[C@H]1O[C@@H](n2cnc3c(NCc4ccccc4)ncnc32)[C@H](O)[C@@H]1O [Compound 28, N^6-benzyladenosine-5'-N-ethyluronamide]
Ki [2, 11]: 0.095 µM
Ki [3, 13]: 0.0953 ± 0.0246 µM
Ki [4, 14]: 0.0873 ± 0.0139 µM

CCCn1c(=O)c2[nH]c(-c3ccc(S(=O)(=O)O)cc3)nc2n(CCC)c1=O [Compound 135, 8-sulfophenyl-1,3-dipropylX]
Ki [1, 10]: 0.14 µM
Ki [2, 11]: 0.79 µM

N=C(N)NC(=O)c1nc(Cl)c(N)nc1N [Compound 97, amiloride]
Ki [1, 12]: 11 µM
Ki ([2]; read-out: A2 affinity Ki; values without SEM, taken from the literature; cited from earlier work): 17 µM

CCNC(=O)[C@H]1O[C@@H](n2cnc3c(N(C)C)ncnc32)[C@H](O)[C@@H]1O [Compound 29, N^6 -dimethylNECA, reference compound]
Ki [1, 10]: 9.6 µM
Ki [3, 13]: 13.5 µM

CCCn1c(=O)c2[nH]c(C3CCCC3)nc2n(CCC)c1=O [Compound 130, 8-cyclopentyl-1,3-dipropylxanthine]
displacement of specific [125I]AB-MECA binding (in words) [5]: completely displaced most but not all of the high affinity [^125 I]AB-MECA binding
Ki for displacement of [125I]AB-MECA binding ([5]; sigmoidal competition curves): 0.002 to 0.008 µM

O=S(=O)(O)CCNc1ncnc2c1ncn2[C@@H]1O[C@H](CO)[C@@H](O)[C@H]1O [Compound 11, N^6-(2-sulfo)ethyladenosine]
A1 percent displacement ([1]; at 100 μM, value without SEM, from the literature; cited from earlier work): 41%

Cn1cnc2c1c(=O)[nH]c(=O)n2C [Compound 106, 3,7-dimethylX]
Ki [1, 10]: 83.4 µM
Ki [2, 11]: 187 µM

CN1CCC(=C2c3ccccc3C=Cc3ccccc32)CC1 [cyproheptadine, reference compound]
effect on 3-IB-MECA-induced scratching (in words) ([6]; 1 mg/kg): only partial
effect on 3-IB-MECA-induced scratching (in words) ([6]; 10 mg/kg i.p.): eliminated this behavior

CCNC(=O)[C@H]1O[C@@H](n2cnc3c(N)nc(NCCc4ccc(CCC(=O)NCCN)cc4)nc32)[C@H](O)[C@@H]1O [APEC, reference compound]
reduction in locomotor activity at chosen dose ([6]; APEC 16 μg/kg, 3-IB-MECA 100 μg/kg i.p.): ca. 50%
Ki ([3]; Table 2, [3H]CGS 21680, rat striatal membranes, read-out: Ki (A2)): 0.0057 µM
Ki ([4]; Table 2, [3H]PIA, read-out: Ki (A1)): 0.4 µM

C1CCc2nnnn2CC1 [PMT, pentamethylenetetrazole, reference compound]
Mortality 0.4-5 h [7]: 0%
Mortality <15 min [7]: 100%
Mortality >5 h [7]: 0%
Mortality Overall [7]: 100%
Onset of convulsive behavior [7]: 74 s

CC(C)Cn1c(=O)n(C)c(=O)c2[nH]cnc21 [Compound 108, 3-isobutyl-1-methylxanthine]
Ki [2, 11]: 16 µM

CCCn1c(=O)c2[nH]c(-c3ccc(C=CC(=O)O)cc3)nc2n(CCC)c1=O [BW1433, 1,3-dipropyl-8-(4-carboxyvinylphenyl)xanthine, reference compound]
blood flow and respiratory rates (in words) ([8]; 4 mg/kg alone): Blood flow and respiratory rates were increased
rise in blood pressure [8, 15]: > 40 % of initial values
rise in heart rate [8, 15]: > 40 % of initial values
body temperature (in words) ([8]; rat, in vivo, 4 mg/kg): no major changes

OC[C@H]1O[C@@H](n2cnc3c(NC4CCCC4)ncnc32)[C@H](O)[C@@H]1O [Compound 4, N^6 -cyclopentyladenosine, reference compound]
ED50 ([6]; Mus musculus, ip, read-out: ED50 for locomotor depression): 0.1 mg/kg
duration of bradycardiac effect ([8]; 0.1 mg/kg i.p., entire monitoring period): 90 min
drop in blood pressure [8, 16]: 50%
drop in heart rate [8, 16]: 20%
time at which hypotensive effect begins to wane ([8]; 0.1 mg/kg i.p., post-injection): approximately 20 min

CN(C)c1ncnc2c1ncn2[C@@H]1O[C@H](CO)[C@@H](O)[C@H]1O [Compound 9, N^6 -dimethyladenosine, reference compound]
Ki [1, 10]: 10 µM
Ki [3, 13]: 28.9 µM

COc1cc(OC)cc(C(CNc2ncnc3c2ncn3[C@@H]2O[C@H](CO)[C@@H](O)[C@H]2O)c2ccccc2C)c1 (some centres unmarked) [Compound 10, N^6-[2-(3,5-dimethoxyphenyl)-2-(2-methylphenyl)ethyl]adenosine]
Ki ([2]; read-out: A2 affinity Ki; cited from earlier work): 0.0044 µM

CCCCn1c(=O)c2c(ncn2[C@@H]2O[C@H](CO)[C@@H](O)[C@H]2O)n(Cc2ccccc2)c1=O [Compound 121, 3-benzyl-1-butylxanthine-7-β-D-ribofuranoside]
Ki ([3]; Table 4, [3H]CGS 21680, rat striatal membranes, read-out: Ki (A2)): 4.51 µM
Ki [3, 13]: 4.51 µM
potency increase at A1 and A2a receptors vs 1,3-di-n-butylxanthine-7-β-D-ribofuranoside ([4]; A1 and A2a receptors): 2-4 fold
Ki ([4]; Table 4, [3H]PIA, read-out: Ki (A1)): 1.72 ± 0.03 µM

CN[C@H](CC(=O)O)C(=O)O [NMDA, N-methyl-D-aspartate, reference compound]
% Mortality at 24 h ([9]; NMDA 60 mg/kg alone): 60%
Ave. Latency to Seizures ([9]; NMDA 60 mg/kg alone): 244 + 90 sec
% Convulsing ([9]; NMDA 60 mg/kg alone (control), within 15 min): 80%
Impairment (neurological impairment scale 1-6) ([9]; NMDA 60 mg/kg alone, 1 no change ... 6 clonic/tonic complexes): 3.5 ± 0.5

Cn1c(=O)[nH]c2ncn(C)c2c1=O [Compound 104, 1,7-dimethylX, reference compound]
Ki [1, 10]: 30 µM
Ki [3, 13]: 19.4 µM

Nc1[nH]c2ccccc2c2ncnc1-2 [Compound 94, imidazo[4,5-c]quinolin-4-amine]
Ki [2, 11]: 1.4 µM

CCNC(=O)[C@H]1O[C@@H](n2cnc3c(NCc4ccc(OC)cc4)ncnc32)[C@H](O)[C@@H]1O [Compound 67, N^6-(4-methoxybenzyl)adenosine-5'-N-ethyluronamide]
Ki [3, 13]: 0.609 ± 0.034 µM
Ki [4, 14]: 0.209 ± 0.03 µM

CCNC(=O)[C@H]1O[C@@H](n2cnc3c(NCc4cccc([N+](=O)[O-])c4)ncnc32)[C@H](O)[C@@H]1O [Compound 62, N^6-(3-nitrobenzyl)-NECA]
Ki [3, 13]: 0.035 ± 0.007 µM
Ki [4, 14]: 0.078 ± 0.01 µM

Nc1ncnc2c1ncn2[C@@H]1O[C@H](CO)C[C@H]1O [Compound 72, 3'-deoxyadenosine, reference compound]
inhibition at 100 µM ([3]; at 100 μM): 26.3 ± 3.4%
inhibition at 100 µM ([4]; at 100 μM, read-out: A1 percent displacement): 5.8 ± 2.8%
